# According to PMC3585822, “The ancestral activation promiscuity of ADP-glucose pyrophosphorylases from oxygenic photosynthetic organisms” (BMC Evolutionary Biology, 2013):
# Where two headings read alike, the source gives them in different places.
# Experiments:
# Experiment in all cases: ADP-[…]Glc synthesis from […]Glc1P, modified Hill fit
# OtaS/OtaL [1] = tested on: T1, OtaS/OtaL; assay type: biochemical, Ostreococcus tauri; conditions: allosteric activator; 1 mM ATP, 1 mM Glc1P, 7 mM MgCl2, pH 8.0, 37 °C; non-catalytic OtaS with wild-type OtaL; read-out: A0.5
# T1 construct: recombinant S2L2 heterotetramer co-expressed in E. coli AC70R1-504, purified
# OtaS = tested on: T2, OtaS; assay type: biochemical, Ostreococcus tauri; conditions: allosteric activator; 1 mM ATP, 1 mM Glc1P, 7 mM MgCl2, pH 8.0, 37 °C; read-out: A0.5
# T2 construct: recombinant small subunit homotetramer from E. coli AC70R1-504, purified; plasmid pMAB5 or pMAB6
# [2] = molecular target: T3, ADP-Glc PPase from Anabaena (Nostoc sp. PCC 7120 = FACHB-418, UniProt P30521); assay type: biochemical; conditions: read-out: A0.5
# T3 construct: gene glgC; recombinant homotetramer from E. coli AC70R1-504, purified
# T3 sequence (P30521 1-429): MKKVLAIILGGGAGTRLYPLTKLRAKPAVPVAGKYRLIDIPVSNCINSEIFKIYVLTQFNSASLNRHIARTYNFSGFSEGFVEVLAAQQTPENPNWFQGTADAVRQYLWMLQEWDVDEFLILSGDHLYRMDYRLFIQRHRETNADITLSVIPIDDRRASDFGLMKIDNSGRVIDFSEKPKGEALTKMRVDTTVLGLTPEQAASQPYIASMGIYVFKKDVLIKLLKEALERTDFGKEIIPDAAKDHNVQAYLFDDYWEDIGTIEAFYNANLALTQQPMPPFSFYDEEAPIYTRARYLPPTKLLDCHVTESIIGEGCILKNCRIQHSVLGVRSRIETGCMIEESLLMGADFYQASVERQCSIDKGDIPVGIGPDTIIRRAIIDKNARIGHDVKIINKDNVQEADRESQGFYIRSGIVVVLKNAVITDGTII
# OtaS/OtaL [3] = tested on: T1, OtaS/OtaL; assay type: biochemical, Ostreococcus tauri; conditions: allosteric activator; 1 mM ATP, 1 mM Glc1P, 7 mM MgCl2, pH 8.0, 37 °C; non-catalytic OtaL with wild-type OtaS; read-out: A0.5
# OtaS/OtaL [4] = tested on: T1, OtaS/OtaL; assay type: biochemical, Ostreococcus tauri; conditions: allosteric activator; 1 mM ATP, 1 mM Glc1P, 7 mM MgCl2, pH 8.0, 37 °C; read-out: A0.5
# [5] = allosteric activator, 1 mM ATP, 1 mM Glc1P, 7 mM MgCl2, pH 8.0, 37 °C
SMILES,EC50 (OtaS/OtaL [1]) [µM],EC50 (OtaS) [µM],EC50 [2] [µM],EC50 (OtaS/OtaL [3]) [µM],EC50 (OtaS/OtaL [4]) [µM],"EC50 [2, 5] [µM]"
O=C(O)[C@H](O)COP(=O)(O)O [3-PGA],3,1200,75,67,540,–
O=P(O)(O)OC[C@H]1OC(O)(COP(=O)(O)O)[C@@H](O)[C@@H]1O (stereo partly shown) [FBP],8200,1100,–,1500,1100,300
O=P(O)(O)OC[C@H]1OC(O)(CO)[C@@H](O)[C@@H]1O (stereo partly shown) [Fru6P],–,1900,–,–,15000,1600
O=P(O)(O)OC[C@H]1OC(O)[C@H](O)[C@@H](O)[C@@H]1O (stereo partly shown) [Glc6P],–,10000,–,–,75000,400
